Test results published in the COVID Moonshot data (paper PMC7615835).
Several values for one entry are separate records, joined by “and”; a condition that tells them apart may be missing. Equal values may be shown once.

What follows are molecules tested against SARS-CoV-2 Main Protease (SARS-CoV-2) (UniProt P0DTD1).

SMILES	IC50
O=C(Nc1cncc2ccccc12)C1CCOc2c(OCc3cccnc3)cc(Cl)cc21 (configuration not stated)	24.9 µM and > 9.95 µM
O=C(CCl)N1CCCN(S(=O)(=O)c2ccc(F)cc2)CC1	44 µM
COc1cc(CN2CCN(C(=O)CCl)CC2)c2ccccc2c1	2.75 µM
C=CC(=O)N(c1ccc(C(C)(C)C)cc1)C(C(=O)NCc1ccc(F)cc1)c1cccnc1 (configuration not stated)	23.3 µM
O=C(Cc1cc(Cl)cc(Nc2ccc(-c3ccccc3)cc2)c1)Nc1cncc2ccccc12	2.06 µM
O=C(Nc1cncc2ccccc12)C1CN(S(=O)(=O)N2CCOCC2)Cc2ccc(Cl)cc21 (configuration not stated)	0.138 µM
COc1ccc(N(C(=O)c2ccco2)C(C(=O)NCCc2cccc(F)c2)c2cccnc2)cc1OCCO (configuration not stated)	> 99.5 µM
COc1ccccc1OCCNC(=O)c1cc(N)cc2ccccc12	> 99.5 µM
COc1ccc2c(NC(=O)C3CCOc4ccc(Cl)cc43)[nH]nc2c1 (configuration not stated)	> 99.5 µM
O=C(Nc1cncc2ccccc12)C1CCOc2c(OCCC(F)(F)F)cc(Cl)cc21 (configuration not stated)	3.14 µM
O=C(CC1(C(=O)Nc2cncc3ccccc23)CCOc2ccc(Cl)cc21)N1CCOCC1CC(F)F (configuration not stated)	7.68 µM and 12.6 µM
COc1ccc2cncc(NC(=O)[C@@H]3CCNc4cc(Cl)c(Cl)cc43)c2c1 (stereo in doubt)	27.2 µM
CC(NCc1c[nH]c2nccnc12)c1cc(F)ccc1N1CCC(O)CC1 (configuration not stated)	> 99.5 µM
COc1ccc2c(NC(=O)Cc3cccc(Cl)c3)noc2c1	> 99.5 µM
Cc1ccccc1NC(=O)CC1SC(=O)N(c2ccccc2)C1=O (configuration not stated)	0.443 µM
Cc1cc(C)[n+](C)c(C#N)n1	> 99.5 µM
COc1ccc([N+](=O)[O-])cc1COC(=O)c1cnc2ccccc2n1	> 99.5 µM
CCC(c1ccncc1)N(C)C(=O)Cc1c[nH]c2ncccc12 (configuration not stated)	> 99.5 µM
O=C(CC1(C(=O)Nc2cncc3ccccc23)CCOc2ccc(Cl)cc21)N1CCCCC1c1ccn[nH]1 (configuration not stated)	0.616 µM
CC(C)CCN1C(=O)C(=O)c2cc(Br)ccc21	> 99.5 µM
C=CC(=O)N(Cc1cccc(Cl)c1)C(C(=O)NCCc1cccc(F)c1)c1cnccc1C (configuration not stated)	> 99.5 µM
CC(C)(C)N(Cc1ccccc1)c1cc(Cl)cc(CC(=O)Nc2cncc3ccccc23)c1	1.91 µM
CC1(c2ccc(N(C(=O)c3cocn3)C(C(=O)NCCc3cccc(F)c3)c3cccnc3)cc2)OCCO1 (configuration not stated)	83.1 µM
Cc1ccc(C(Cc2ccccc2)C(=O)Nc2nnn3ccccc23)cc1 (configuration not stated)	> 99.5 µM
O=C(Cc1cc(Cl)cc(Nc2ccncc2I)c1)Nc1cncc2ccccc12	1.68 µM
O=C(NCCc1cccc(F)c1)C(c1cccnc1)N(C(=O)c1cocn1)C1CCc2cc(F)ccc21 (configuration not stated)	> 99.5 µM

SMILES	IC50
O=C(Cc1cccc(Cl)c1)Nc1cncc2cc(OCC(F)(F)F)ccc12	> 99.5 µM
O=C(Nc1ccc(F)cc1)[C@@H](c1ccccc1)N1Cc2ccccc2C1=O (stereo in doubt)	> 99.5 µM
O=C(Cc1cc(Cl)cc(NCc2cccc(Br)c2)c1)Nc1cncc2ccccc12	1.48 µM
Cc1c(Br)cnc(Nc2cc(Cl)cc(CC(=O)Nc3cncc4ccccc34)c2)c1[N+](=O)[O-]	2.17 µM
CS(=O)(=O)N1CCc2ccc(Cl)cc2C1C(=O)Nc1cncc2ccccc12 (configuration not stated)	1.6 µM
O=C(Cn1cnc2ccccc21)Nc1cccc(Cl)c1	87.2 µM
O=C(Cc1cc(Cl)cc(N2CCN(c3ncccn3)CC2)c1)Nc1cncc2ccccc12	2.52 µM
O=C(Nc1cncc2ccccc12)C1c2cc(Cl)ccc2CCN1S(=O)(=O)C1CC1 (configuration not stated)	1.14 µM
Nc1ccc2c(c1)C(=O)N(c1cc(Cl)cc(CC(=O)Nc3cncc4ccccc34)c1)C2=O	1.86 µM
O=C(CCl)N1CCCc2cc(NCc3ccc(F)cc3Cl)ccc21	19.3 µM
O=C(Nc1ccc2nccnc2c1)c1csc2cncn12	> 99.5 µM
O=C1C(=O)N(Cc2ccccc2)c2ccc([N+](=O)[O-])cc21	> 99.5 µM
Cc1nc2sccn2c1CN(C)C(=O)c1cn2ccccc2n1	> 99.5 µM
O=C(O)c1ccc(CNCc2c[nH]nc2-c2cccs2)cc1	> 99.5 µM
COc1ccc(N(C(C)=O)c2cc(Cl)cc(CC(=O)Nc3cncc4ccccc34)c2)cc1N	2.71 µM
CC(C)(C)c1ccc(N(C(=O)c2nnn[nH]2)C(C(=O)NCCc2cccc(F)c2)c2cccnc2)cc1 (configuration not stated)	> 99.5 µM
C=CC(=O)N1CCN(S(=O)(=O)c2ccccc2)CC1	> 99.5 µM
CNC(=O)Nc1ccc(N(C(=O)c2cocn2)C(C(=O)NCCc2cccc(F)c2)c2cccnc2)cc1 (configuration not stated)	> 99.5 µM
Nc1cccc(C2CN(C(=O)CCl)Cc3ccccc32)c1 (configuration not stated)	9.23 µM
CS(=O)(=O)Nc1ccc2cncc(NC(=O)C3CNC(=O)c4ccc(Cl)cc43)c2c1 (configuration not stated)	0.195 µM
Cc1ccn2cnnc2c1NC(=O)Cc1cccc(Cl)c1	75.3 µM
O=C(Nc1cncc2ccccc12)C1CN(C(=O)C2CC2)Cc2ccc(Cl)cc21 (configuration not stated)	0.487 µM
CNC(=O)CN1CC(C(=O)Nc2cncc3cccc(Cl)c23)c2cc(Cl)ccc2C1=O (configuration not stated)	0.0917 µM
O=C(NCCc1cccc(F)c1)C(c1cccnc1)N(Cc1c(O)ccc2c1CCCC2)C(=O)c1ccco1 (configuration not stated)	12.1 µM
O=C(Cc1cccc(Cl)c1)NC1COCc2ccccc21 (configuration not stated)	69 µM
CC(C)S(=O)(=O)c1ccc(N(C(=O)c2cocn2)C(C(=O)NCCc2cccc(F)c2)c2cccnc2)cc1 (configuration not stated)	66.1 µM
